Our source for the Activity, IC50 and inhibition values is ChEMBL document CHEMBL5042492, “Noncovalent CDK12/13 dual inhibitors-based PROTACs degrade CDK12-Cyclin K complex and induce synthetic lethality with PARP inhibitor” (Eur J Med Chem, 2022).

Calls of active or inactive are those of the source. The calls are words filed in the database; no cut-off is given here.

Assay [1] deals with T1, Protein cereblon/Cyclin-K/Cyclin-dependent kinase 12 (Homo sapiens, UniProt O75909+Q9NYV4+Q96SW2). Kind of assay: Protac activity at human CRBN/CDK12/CycK in human Bel-7402 cells assessed as RNAP2 CTD Ser2 phosphorylation level at 0.1 to 30 uM measured after 24 hrs by Western blotting assay. The assay is classed as cell-based. The settings on record: dose 0.1-30 µM. A general note: A western blot detects proteins with antibodies after separation by electrophoresis.
T1 sequence (O75909 whole entry, looked up): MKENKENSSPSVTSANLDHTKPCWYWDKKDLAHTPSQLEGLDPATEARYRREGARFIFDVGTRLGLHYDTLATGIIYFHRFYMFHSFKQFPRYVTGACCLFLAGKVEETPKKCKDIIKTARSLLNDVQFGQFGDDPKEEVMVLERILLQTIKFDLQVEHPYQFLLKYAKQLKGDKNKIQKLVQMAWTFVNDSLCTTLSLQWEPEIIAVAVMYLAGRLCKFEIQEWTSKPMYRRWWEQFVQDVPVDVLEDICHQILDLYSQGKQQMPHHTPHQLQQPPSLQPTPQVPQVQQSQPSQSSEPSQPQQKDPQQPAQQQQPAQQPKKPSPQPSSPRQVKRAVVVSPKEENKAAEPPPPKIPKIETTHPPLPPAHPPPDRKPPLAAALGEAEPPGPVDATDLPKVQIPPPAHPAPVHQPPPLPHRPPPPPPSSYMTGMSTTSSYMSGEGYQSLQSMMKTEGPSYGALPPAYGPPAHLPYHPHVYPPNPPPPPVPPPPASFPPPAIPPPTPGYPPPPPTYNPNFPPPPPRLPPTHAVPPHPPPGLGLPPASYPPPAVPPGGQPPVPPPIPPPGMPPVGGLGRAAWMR
T1 sequence (Q96SW2 whole entry, looked up): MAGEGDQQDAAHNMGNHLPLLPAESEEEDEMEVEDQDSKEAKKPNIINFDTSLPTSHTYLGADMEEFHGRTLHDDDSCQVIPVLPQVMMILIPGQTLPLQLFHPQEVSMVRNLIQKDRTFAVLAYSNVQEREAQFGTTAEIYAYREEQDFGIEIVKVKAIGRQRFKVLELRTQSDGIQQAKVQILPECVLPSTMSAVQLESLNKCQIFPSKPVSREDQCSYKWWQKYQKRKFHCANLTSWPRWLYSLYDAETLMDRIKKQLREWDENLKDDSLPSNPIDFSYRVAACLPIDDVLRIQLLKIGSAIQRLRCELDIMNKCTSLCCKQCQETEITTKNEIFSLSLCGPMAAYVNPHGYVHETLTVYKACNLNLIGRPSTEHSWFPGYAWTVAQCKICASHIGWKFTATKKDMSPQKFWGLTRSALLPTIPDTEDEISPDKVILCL
T1 sequence (Q9NYV4 whole entry, looked up): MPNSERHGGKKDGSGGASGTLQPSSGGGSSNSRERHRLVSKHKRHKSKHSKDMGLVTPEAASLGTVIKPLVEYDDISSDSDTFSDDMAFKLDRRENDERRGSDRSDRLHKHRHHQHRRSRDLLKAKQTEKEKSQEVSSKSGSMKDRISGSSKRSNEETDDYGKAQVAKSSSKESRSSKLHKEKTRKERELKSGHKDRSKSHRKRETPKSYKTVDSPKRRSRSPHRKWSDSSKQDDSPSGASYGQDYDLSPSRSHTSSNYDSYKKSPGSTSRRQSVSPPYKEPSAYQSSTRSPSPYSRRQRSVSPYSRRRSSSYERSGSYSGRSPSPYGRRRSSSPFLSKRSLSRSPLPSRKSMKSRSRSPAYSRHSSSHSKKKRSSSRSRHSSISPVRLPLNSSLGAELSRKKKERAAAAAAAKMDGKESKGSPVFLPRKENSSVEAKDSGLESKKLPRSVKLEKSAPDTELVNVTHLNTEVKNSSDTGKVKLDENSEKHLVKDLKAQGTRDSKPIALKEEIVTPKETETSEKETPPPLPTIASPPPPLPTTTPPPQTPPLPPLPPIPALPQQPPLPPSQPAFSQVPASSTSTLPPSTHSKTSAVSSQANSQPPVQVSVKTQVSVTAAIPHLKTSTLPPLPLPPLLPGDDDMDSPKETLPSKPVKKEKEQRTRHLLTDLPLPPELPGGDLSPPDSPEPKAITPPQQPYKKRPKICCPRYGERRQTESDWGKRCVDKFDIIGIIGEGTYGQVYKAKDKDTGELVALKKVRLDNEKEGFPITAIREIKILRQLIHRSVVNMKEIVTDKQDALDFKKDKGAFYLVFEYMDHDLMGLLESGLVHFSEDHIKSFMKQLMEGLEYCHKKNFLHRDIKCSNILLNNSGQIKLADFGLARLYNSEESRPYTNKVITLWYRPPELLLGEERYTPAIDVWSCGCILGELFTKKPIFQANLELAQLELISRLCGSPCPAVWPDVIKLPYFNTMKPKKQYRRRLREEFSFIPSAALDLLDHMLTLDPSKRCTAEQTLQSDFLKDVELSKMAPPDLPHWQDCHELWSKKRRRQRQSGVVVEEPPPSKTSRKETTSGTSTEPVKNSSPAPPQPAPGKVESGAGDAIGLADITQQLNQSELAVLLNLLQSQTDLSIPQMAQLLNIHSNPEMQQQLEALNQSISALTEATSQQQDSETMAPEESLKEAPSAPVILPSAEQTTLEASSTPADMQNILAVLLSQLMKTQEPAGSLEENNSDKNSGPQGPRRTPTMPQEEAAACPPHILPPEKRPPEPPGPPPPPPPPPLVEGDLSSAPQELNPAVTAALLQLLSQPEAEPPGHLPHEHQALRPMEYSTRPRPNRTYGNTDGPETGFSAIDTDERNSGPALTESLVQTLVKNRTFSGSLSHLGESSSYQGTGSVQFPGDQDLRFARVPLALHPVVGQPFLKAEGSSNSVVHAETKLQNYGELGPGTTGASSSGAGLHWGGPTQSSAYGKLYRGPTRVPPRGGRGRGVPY

Assay [2] has as its target T1, Protein cereblon/Cyclin-K/Cyclin-dependent kinase 12. Kind of assay: Protac activity at human CRBN/CDK12/CycK in human MDA-MB-231 cells assessed as RNAP2 CTD Ser2 phosphorylation level at 0.1 to 30 uM measured after 24 hrs by Western blotting assay. The assay is classed as cell-based. The settings on record: dose 0.1-30 µM.
The target is the same in assay [3]. Kind of assay: Protac activity at human CRBN/CDK12/CycK in human Bel-7402 cells assessed as downregulation of Mcl-1 level upto 30 uM measured after 24 hrs by Western blotting assay. Format: cell-based. The settings on record: dose microM <=30, time 24.0 hrs.
Assay [4] has the same target. As to the kind of experiment: Protac activity at human CRBN/CDK12/CycK in human MDA-MB-231 cells assessed as downregulation of Mcl-1 level upto 30 uM measured after 24 hrs by Western blotting assay. The assay is classed as cell-based. The settings on record: dose microM <=30, time 24.0 hrs.
Assay [5] has the same target. As to the kind of experiment: Protac activity at human CRBN/CDK12/CycK in human Bel-7402 cells assessed as degradation of CDK12 at 3 uM measured after 24 hrs by Western blotting assay. The assay is classed as cell-based.
For the next assay, the target named is CDK12/Cyclin K (Homo sapiens, UniProt Q9NYV4). Kind of assay: Inhibition of human CDK12 (696 to 1082 residues) /cyclinK (1 to 300 residues) using ac-YSPTSPpSYSPTSFpS-YSPTSPpSY-[PEG2]-RR-amid peptide as substrate in presence of ATP measured after 2 hrs by ADP-Glo kinase assay. The assay is classed as protein-complex assay. A general note: ADP-Glo turns the ADP formed in a reaction into a luminescent signal.
CDK12/Cyclin K, sequence (O75909 whole entry, the tested form may be a part): as the sequence (O75909 whole entry, looked up) above
CDK12/Cyclin K, sequence (Q9NYV4 whole entry, the tested form may be a part): as the sequence (Q9NYV4 whole entry, looked up) above

In assay [6] the target is T1, Protein cereblon/Cyclin-K/Cyclin-dependent kinase 12. Kind of assay: Protac activity at human CRBN/CDK12/CycK in human MDA-MB-231 cells assessed as degradation of CDK12 at 3 uM measured after 24 hrs by Western blotting assay. Format: cell-based.
Assay [7] shares this target. Kind of assay: Protac activity at human CRBN/CDK12/CycK in human Bel-7402 (CRBN/KO) cells assessed as degradation of CDK12 measured after 24 hrs by Western blotting assay. Format: cell-based.
The target is the same in assay [8]. Kind of assay: Protac activity at human CRBN/CDK12/CycK in human MDA-MB-231(CRBN/KO) cells assessed as degradation of CDK12 measured after 24 hrs by Western blotting assay. The assay is classed as cell-based.
The target in assay [9] is T2, CDK12/Cyclin K (Homo sapiens) (UniProt O75909+Q9NYV4). As to the kind of experiment: Protac activity at human CDK12/CycK in human Bel-7402 (CRBN/WT) cells assessed as degradation of CDK12 measured after 24 hrs by Western blotting assay. The assay is classed as cell-based.
T2 sequence (O75909 whole entry, looked up): as the sequence (O75909 whole entry, looked up) above
T2 sequence (Q9NYV4 whole entry, looked up): as the sequence (Q9NYV4 whole entry, looked up) above
Assay [10] deals with T2, CDK12/Cyclin K (Homo sapiens). As to the kind of experiment: Protac activity at human CDK12/CycK in human MDA-MB-231 (CRBN/WT) cells assessed as degradation of CDK12 measured after 24 hrs by Western blotting assay. The assay is classed as cell-based.
Assay [11] has as its target Cyclin-dependent kinase 13 (Homo sapiens) (UniProt Q14004). As to the kind of experiment: Inhibition of human N-terminal FLAG-tagged CDK13 (600 to 1100 residues) using GST-tagged CTD as substrate at 3 uM for 2 hrs by western blot analysis.
The test system of assay [12] is MDA-MB-231. Kind of assay: Antiproliferative activity against human MDA-MB-231 cells at 1 uM for 10 days by SRB staining based clone formation assay relative to control. The assay is classed as functional. The settings on record: MDA-MB-231, 240 h, time 10 day. (In SRB staining, fixed cells bind dye roughly in proportion to their protein.)
Assay [13] relates to MDA-MB-231. Kind of assay: Antiproliferative activity against human MDA-MB-231 cells at 3 uM for 10 days by SRB staining based clone formation assay relative to control. Format: functional. The settings on record: MDA-MB-231, 240 h, time 10 day.

Cyclin-dependent kinase 13 (Homo sapiens), sequence (Q14004 whole entry, looked up, the tested form may be a part): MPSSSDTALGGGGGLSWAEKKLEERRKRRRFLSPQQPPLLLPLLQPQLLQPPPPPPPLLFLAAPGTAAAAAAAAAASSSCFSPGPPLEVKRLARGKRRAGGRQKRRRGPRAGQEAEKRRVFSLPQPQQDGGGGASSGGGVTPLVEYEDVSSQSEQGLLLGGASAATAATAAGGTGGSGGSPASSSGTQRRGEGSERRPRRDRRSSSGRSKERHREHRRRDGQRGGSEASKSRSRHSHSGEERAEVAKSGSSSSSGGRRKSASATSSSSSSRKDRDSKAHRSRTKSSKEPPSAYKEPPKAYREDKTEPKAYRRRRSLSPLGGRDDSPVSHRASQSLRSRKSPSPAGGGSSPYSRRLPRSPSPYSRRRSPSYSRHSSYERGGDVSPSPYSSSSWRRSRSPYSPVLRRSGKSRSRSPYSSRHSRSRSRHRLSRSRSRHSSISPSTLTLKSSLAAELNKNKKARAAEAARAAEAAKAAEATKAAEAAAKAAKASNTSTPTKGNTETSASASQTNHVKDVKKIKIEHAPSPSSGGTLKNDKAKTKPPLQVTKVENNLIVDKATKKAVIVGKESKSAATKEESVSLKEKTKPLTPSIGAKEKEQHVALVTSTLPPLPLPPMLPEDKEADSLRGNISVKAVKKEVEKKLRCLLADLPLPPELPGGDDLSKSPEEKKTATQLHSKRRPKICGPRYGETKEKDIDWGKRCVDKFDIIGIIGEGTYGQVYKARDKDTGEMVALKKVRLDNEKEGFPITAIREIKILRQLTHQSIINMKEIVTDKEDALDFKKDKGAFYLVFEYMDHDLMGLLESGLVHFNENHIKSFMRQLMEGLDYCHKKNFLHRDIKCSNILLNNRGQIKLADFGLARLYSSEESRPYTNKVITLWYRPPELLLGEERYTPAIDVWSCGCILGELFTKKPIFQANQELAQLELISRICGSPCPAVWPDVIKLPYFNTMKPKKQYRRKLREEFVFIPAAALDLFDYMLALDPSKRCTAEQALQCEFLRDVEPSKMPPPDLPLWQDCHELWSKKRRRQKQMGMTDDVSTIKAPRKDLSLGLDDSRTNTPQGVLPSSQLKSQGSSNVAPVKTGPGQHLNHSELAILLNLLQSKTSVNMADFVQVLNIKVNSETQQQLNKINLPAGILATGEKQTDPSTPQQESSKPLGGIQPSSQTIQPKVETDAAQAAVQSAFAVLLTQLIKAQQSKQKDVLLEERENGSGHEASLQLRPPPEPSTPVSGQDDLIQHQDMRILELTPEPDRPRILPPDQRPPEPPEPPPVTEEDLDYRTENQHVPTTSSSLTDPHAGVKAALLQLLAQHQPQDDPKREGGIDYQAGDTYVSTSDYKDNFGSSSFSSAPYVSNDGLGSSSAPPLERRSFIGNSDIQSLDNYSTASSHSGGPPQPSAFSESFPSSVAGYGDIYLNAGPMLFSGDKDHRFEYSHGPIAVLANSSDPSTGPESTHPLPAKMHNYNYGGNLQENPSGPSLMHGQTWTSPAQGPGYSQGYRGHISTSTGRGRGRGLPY

`CN(C)C/C=C/C(=O)Nc1ccc(C(=O)N2CCC[C@@H](Nc3ncc(Cl)c(-c4c[nH]c5ccccc45)n3)C2)cc1`: the outcome in [1], in assay [2], in assay [3] and in [4] was Active.
`CC(C)n1cnc2c(NCc3nc4cc(F)c(NCCCCCCNC(=O)COc5cccc6c5C(=O)N(C5CCC(=O)NC5=O)C6=O)cc4[nH]3)nc(N3CCOCC3)nc21` (configuration not stated): the outcome in assay [5] and in assay [6] was Active. Further, the half-maximal inhibitory concentration (IC50) at CDK12/Cyclin K was found to be 119 nM.
Turning to `COCCOCCOc1cc2[nH]c(CNc3nc(N4CCOCC4)nc4c3ncn4C(C)C)nc2cc1F`, on CDK12/Cyclin K, the IC50 worked out at 237 nM.
For `CC(C)n1cnc2c(NCc3nc4cc(F)c(NCCCCCCCCCCNC(=O)COc5cccc6c5C(=O)N(C5CCC(=O)NC5=O)C6=O)cc4[nH]3)nc(N3CCOCC3)nc21` (configuration not stated), the result in [5] and in assay [6] was Active.
For `COCCOCCOc1cc2[nH]c(CNc3nc(OCC[C@@H]4CCCCN4)nc4c3ncn4C(C)C)nc2cc1F`, the IC50 on CDK12/Cyclin K was found to be 66.4 nM.
Consider `COCCOCCOc1cc2[nH]c(CNc3nc(N4CCOCC4)nc4c3ncn4-c3cnn(C)c3)nc2cc1F`, for which, on CDK12/Cyclin K, the IC50 was 411 nM.
`Cn1cc(-n2cnc3c(NCc4nc5cc(Cl)c(Cl)cc5[nH]4)nc(N4CCOCC4)nc32)cn1`: the outcome in assay [7], in assay [8], in assay [9] and in assay [10] was Active.
As for `CC(C)n1cnc2c(NCc3nc4cc(F)c(NCCCCCCCCCCCCNC(=O)COc5cccc6c5C(=O)N(C5CCC(=O)NC5=O)C6=O)cc4[nH]3)nc(N3CCOCC3)nc21` (configuration not stated), the outcome in assay [5] and in assay [6] was Active. Moreover, on CDK12/Cyclin K, the IC50 stood at 2000 nM. In addition, the inhibition entry in assay [11] is “inactive”.
Consider `O=C(c1cc(Cc2n[nH]c(=O)c3ccccc23)ccc1F)N1CCN(C(=O)C2CC2)CC1` [OLAPARIB], for which 1 µM produced 12.4% inhibition with MDA-MB-231 [12]. This molecule displayed an inhibition at 3 µM in the assay with MDA-MB-231 [13] of 98%.

A word on the IC50: it is the midpoint of a concentration-inhibition curve. Broadly, the inhibition is the share of the control response that was lost under treatment.
